According to paper PMC5464344, “Analgesic and anti‐inflammatory properties of novel, selective, and potent EP4 receptor antagonists” (Pharmacology Research & Perspectives, 2017):
Read-outs that look alike come from different tables or passages of the source.

Legend:
[1] = target: T1, human EP1 receptor (Homo sapiens, UniProt P34995); assay: [3H]-PGE2 receptor binding assay, EP1 membranes; settings: HEK293 membranes; [3H]-PGE2; geometric mean ± SEM; read-out: hEP1-4 receptor binding EP1 Ki
T1 construct: membrane preparation
T1 sequence (P34995 1-402): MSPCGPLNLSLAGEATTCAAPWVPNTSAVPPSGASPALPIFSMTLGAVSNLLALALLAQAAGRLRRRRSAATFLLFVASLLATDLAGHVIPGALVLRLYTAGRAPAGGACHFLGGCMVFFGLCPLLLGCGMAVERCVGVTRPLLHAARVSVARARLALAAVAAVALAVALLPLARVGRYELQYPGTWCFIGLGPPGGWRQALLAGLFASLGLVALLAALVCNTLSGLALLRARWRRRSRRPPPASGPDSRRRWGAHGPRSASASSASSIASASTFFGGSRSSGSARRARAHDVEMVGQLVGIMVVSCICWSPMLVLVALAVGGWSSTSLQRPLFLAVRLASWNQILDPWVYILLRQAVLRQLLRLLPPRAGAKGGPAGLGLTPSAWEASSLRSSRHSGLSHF
Experimental: Receptor binding assays were done using membrane preparations of HEK 293 cells transfected with various prostanoid receptors using previously published procedure (Nakao et al. 2007). EP1 and EP4 membranes were prepared from recombinant HEK293 cells stably expressing human EPl receptor (GenBank Accession # AY275470, Clone ID PER0100000, UMR cDNA Resource Center, Rolla, MO) or human EP4 receptor. EP2 and EP3 membranes were prepared from HEK293 cells transiently transfected with human EP2 receptor (GenBank Accession # AY275471, Clone ID PER0200000, UMR cDNA Resource Center, Rolla, MO) or human EP3 receptor (GenBank Accession # AY429108, Clone ID PER3VI0000, UMR cDNA Resource Center, Rolla, MO) plasmids. Frozen cell pellets were homogenized in homogenization buffer (10 mmol/L Tris‐HCl, pH7.4, 250 mmol/L sucrose, 1 mmol/L EDTA, 0.3 mmol/L indomethacin and protease inhibitor cocktail with EDTA (Roche Molecular Biochemicals, catalog # 1691498)) using a Teflon/glass homogenizer. After a low speed centrifugation (200g for 15 min at 4°C) the supernatant was subjected to high speed centrifugation (30,000g for 60 min at 4°C). Membrane protein preparation was aliquoted and quick frozen on dry ice prior to storage at −80°C. […] Compounds were tested in a 96‐well format using a three‐fold dilution series to generate 10‐point curves. […] The binding reaction was performed in 200 μL MES buffer (10 mmol/L MES, pH 6.0, 10 mmol/L MgCl2, and l mmol/L EDTA) using polystyrene 96‐well plates. […] The membranes were harvested by filtration (TomTek harvester), washed four times with cold buffer (10 mmol/L MES, pH 6.0, 10 mmol/L MgCl2), dried in a 60°C oven, and the radioactivity was quantified as counts per min (CPM) using a TopCount detector. […] Data were analyzed using a 4‐parameter nonlinear logistic equation. K i Conversion from IC50 Values (K i = […] where [L] is the ligand concentration). Results are expressed as the geometric mean ± standard deviation or geometric mean ± standard error as noted.

[2] = target: Human EP4 (Homo sapiens, UniProt P35408); assay: EP4 cAMP antagonist assay (HTRF), human EP4; assay type: cell-based; settings: read-out: cAMP Antagonism (hEP4) Human EP4 IC50
Experimental: Human EP4 (GenBank Accession # AY429109, Clone ID PER0400000, UMR cDNA Resource Center, Rolla, MO) was stably expressed in HEK293 cells. Rat EP4 cDNA (GenBank Accession# NM_03276) was cloned into pcDNA 3.1 vector and stably transfected into HEK293 cells. The cell lines were maintained in DMEM (invitrogen) supplemented with 10% fetal bovine serum (FBS), 1 mmol/L sodium pyruvate, 10 mmol/L HEPES, 500 μg/mL geneticin and 2 mmol/L L‐glutamine. Confluent cultures were grown at 37°C in an atmosphere containing 5% CO2. […] Immediately prior to the assay, cells were thawed with DMEM and suspended in cAMP assay buffer (HBSS with 0.1% BSA, 20 mmol/L HEPES and 200 μmol/L IBMX).
To measure the cAMP levels, cAMP‐d2 conjugate and anti cAMP‐cryptate conjugate in lysis buffer were incubated with the treated cells at room temperature for 1 h. […] The raw data were converted to cAMP (nmol/L) using a cAMP standard curve generated for each experiment. Data were analyzed using a 4‐parameter nonlinear logistic equation. Results are expressed as the geometric mean ± standard deviation or geometric mean ± standard error as noted.

[3] = test system: male Lewis rats, MIA injected knee; assay: Rat MIA model of pain (incapacitance testing); assay type: in vivo; settings: 1 h post dose, P < 0.05 by Dunnett's test
Experimental: For the monoiodoacetate (MIA) and adjuvant induced arthritis (AIA) studies, male Lewis rats (Envigo, Indianapolis, IN) of approximately 8 weeks of age at the time of disease induction were used. For collagen induced arthritis studies (CIA) female Lewis rats (Charles River) weighing 150–170 g were used. Rats were housed in groups of 2 or 3 per cage and maintained in a constant temperature, and on a 12 h light/12 h dark cycle. Animals had free access to food and water at all times except during data collection.
The right knees of rats were injected with 0.3 mg of MIA (Sigma Aldrich) in 50 μL of saline and the left knees with 50 μL of saline on day zero. These intra‐articular injections are directly into the synovial cavity of the flexed knee joint through the patella ligament. Twelve days later, the rats were randomized into groups of five rats using body weight and the Block Randomized Allocation Tool. […] Reference compound CJ‐042,794 was also tested in the MIA model on day 14 post MIA injection at doses of 1, 3, 10, 30, and 50 mg/kg with the vehicle being 10% Solutol in PEG400 (n = 4 rats per group). The nonsteroidal anti‐inflammatory drug (NSAID) diclofenac was included in all studies at a dose of 5 mg/kg as a positive control. […] Pain was measured using incapacitance testing. […]

[4] = target: T2, IP (PGI2) (h), agonist radioligand (Homo sapiens, UniProt P43119); assay: Off-target activity (CEREP), IP; assay type: binding; settings: 10 μmol/L; obtained at CEREP (Blanco et al. 2016c); read-out: % Inh IP (PGI2) (h), agonist radioligand
T2 construct: CEREP (contract laboratory that ran the assay)
Text: The off‐target activity related to prostaglandin pathway (Table 2) were obtained at CEREP (Blanco et al. 2016c).

Chain of Human EP4 (P35408 whole entry): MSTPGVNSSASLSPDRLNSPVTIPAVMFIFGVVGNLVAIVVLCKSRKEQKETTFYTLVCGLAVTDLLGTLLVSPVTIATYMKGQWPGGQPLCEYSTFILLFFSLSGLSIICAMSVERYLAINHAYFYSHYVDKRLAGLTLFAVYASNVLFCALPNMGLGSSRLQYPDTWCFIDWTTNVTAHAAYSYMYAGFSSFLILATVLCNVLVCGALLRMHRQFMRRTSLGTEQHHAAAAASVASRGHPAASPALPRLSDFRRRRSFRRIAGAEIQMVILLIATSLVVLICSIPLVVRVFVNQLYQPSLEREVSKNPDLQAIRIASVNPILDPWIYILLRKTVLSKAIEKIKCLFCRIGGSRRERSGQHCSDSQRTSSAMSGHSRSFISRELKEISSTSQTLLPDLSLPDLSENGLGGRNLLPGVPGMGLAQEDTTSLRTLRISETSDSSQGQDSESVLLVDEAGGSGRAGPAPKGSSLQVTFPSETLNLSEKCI
T2 sequence (P43119 whole entry): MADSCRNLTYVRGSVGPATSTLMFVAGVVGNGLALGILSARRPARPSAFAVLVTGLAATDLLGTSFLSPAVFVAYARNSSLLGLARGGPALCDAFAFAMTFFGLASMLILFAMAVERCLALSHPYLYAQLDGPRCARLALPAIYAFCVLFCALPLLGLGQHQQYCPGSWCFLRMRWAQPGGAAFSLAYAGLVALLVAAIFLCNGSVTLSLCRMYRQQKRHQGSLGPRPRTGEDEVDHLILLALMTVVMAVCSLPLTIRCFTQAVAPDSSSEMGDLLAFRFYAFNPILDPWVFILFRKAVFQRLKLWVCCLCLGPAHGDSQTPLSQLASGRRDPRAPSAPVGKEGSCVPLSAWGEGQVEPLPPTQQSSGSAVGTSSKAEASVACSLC

Compound | Ki [1] [nM] | IC50 [2] [nM] | pain efficacy (incapacitance testing) versus vehicle ([3]; 3, 10, 30, and 50 mg/kg oral) | inhibition at 10 µM [4] [%] | pain efficacy (normalization of hind paw weight distribution, incapacitance testing) ([3]; 1, 3, and 10 mg/kg oral) | IC50 ([2]; HEK293 cells stably expressing human EP4, PGE2 at EC80, geometric mean ± SEM) [nM]
C[C@H](NC(=O)c1cc(Cl)ccc1Oc1ccc(F)cc1)c1ccc(C(=O)O)cc1 [CJ‐042,794, reference compound] | > 26700 | 4.5 ± 1.85 | significantly different from vehicle |  |  | 
Cc1ccc(N2CCC(O)CC2)nc1C(=O)Nc1c(C)cc(C(=O)O)cc1C [Compound 1] |  | ~6 |  | -4 |  | 
C[C@H](NC(=O)[C@H]1CCCCN1CCOc1ccccc1)c1ccc(C(=O)O)cc1 [Compound 2] |  |  |  | 9 | effective | 
Cc1ccc(-c2cccc(CO)c2)nc1C(=O)Nc1c(C)ccc(C(=O)O)c1C [Compound 3] | > 17500 |  |  |  |  | 2.4 ± 1.4
